Results on eleven compounds are retold here after ChEMBL document CHEMBL5137093, “Improving Drug Delivery While Tailoring Prodrug Activation to Modulate Cmax and Cmin by Optimization of (Carbonyl)oxyalkyl Linker-Based Prodrugs of Atazanavir” (J Med Chem, 2022).

Usually solubility stands for how much of the substance goes into solution per volume. The Cmax is the peak of the concentration-time curve. Usually Tmax stands for the time at which the peak concentration occurs. For orientation: AUC(0-t) means exposure summed from dosing to a finite time, without extrapolation to infinity. Low values mean less exposure, high ones more exposure. As usually defined, the half-life is the time in which the quantity being followed falls by half.

In brackets after ≈: the same amount, converted by molar mass.

Data set [1] in a line: Aqueous stability of the compound in acetate buffer at pH 4 assessed as compound half life measured after 24 hrs by UPLC analysis. Type of data set: physicochemical. Conditions: for t1/2: buffer, pH 4, 24 h, 24 h; for half-life: acetate buffer, pH 4.
Data set [2] is described as follows: Aqueous stability of the compound in phosphate buffer at pH 6.5 assessed as compound half life measured after 24 hrs by UPLC analysis. Conditions: for t1/2: buffer, pH 6.5, 24 h, 24 h; for half-life: phosphate buffer, pH 6.5. The class given is physicochemical.
Data set [3] can be described thus: Aqueous solubility of compound at pH 1 by UPLC analysis. Type of data set: physicochemical.
The nature of data set [4]: Aqueous solubility of compound at pH 4 by UPLC analysis. Type of data set: physicochemical.
A short description of data set [5]: Cmax in Sprague-Dawley rat at 3 ml/kg,po measured upto 24 hrs by UPLC-MS/MS analysis. The class given is ADME. Also noted: dose 3 ml/kg, time < 24 hrs, route po. Conditions: in vivo.
Data set [6] is described as follows: Tmax in Sprague-Dawley rat at 3 ml/kg,po measured upto 24 hrs by UPLC-MS/MS analysis. Conditions: in vivo. The class given is ADME.
Data set [7] can be described thus: AUClast in Sprague-Dawley rat at 3 ml/kg,po measured upto 24 hrs by UPLC-MS/MS analysis. Type of data set: ADME. Also noted: time < 24 hrs, dose 3 ml/kg, route po. Conditions: in vivo; for AUC(0-t) at 24 h: Sprague-Dawley, 3 ml/kg; for AUClast: 24 h.
Data set [8] is described as follows: Relative Cmax ratio of Atazanavir in Sprague-Dawley rat at 3 ml/kg,po measured upto 24 hrs by UPLC-MS/MS analysis. The class given is ADME. Conditions: in vivo.
Data set [9] can be described thus: Relative AUC ratio of Atazanavir in Sprague-Dawley rat at 3 ml/kg,po measured upto 24 hrs by UPLC-MS/MS analysis. The class given is ADME. Conditions: in vivo.
Data set [10] is described as follows: Fold ratio of total AUC of Atazanavir in Sprague-Dawley rat at 3 ml/kg,po measured upto 24 hrs by UPLC-MS/MS analysis. Type of data set: ADME. Conditions: in vivo.
Data set [11] is described as follows: Ratio of Cmax/Cmin of Atazanavir in Sprague-Dawley rat at 3 ml/kg,po measured after 24 hrs by UPLC-MS/MS analysis. Conditions: in vivo. Type of data set: ADME.
Data set [12] is described as follows: Ratio of AUC of Atazanavir in Sprague-Dawley rat at 3 ml/kg,po measured upto 24 hrs by UPLC-MS/MS analysis. The class given is ADME. Conditions: in vivo.
Data set [13] is described as follows: Aqueous stability of the compound in HCL at pH 1 assessed as compound half life measured after 24 hrs by UPLC analysis. The class given is physicochemical. Conditions: for half-life: aqueous HCl, pH 1; for t1/2: buffer, pH 1, 24 h, 24 h.
Setting [14] is: aqueous medium, read-out: solubility.

For the compound `COC(=O)N[C@H](C(=O)N[C@@H](Cc1ccccc1)[C@H](CN(Cc1ccc(-c2ccccn2)cc1)NC(=O)[C@@H](NC(=O)OC)C(C)(C)C)OC(=O)OC(OC(=O)C[C@H](N)Cc1cc(F)c(F)cc1F)C(C)C)C(C)(C)C` (stereo in doubt; 3ac), the t1/2 in data set [1] turned out to be 334.3 h; in data set [2], 7.4 h. The solubility is above 2400 µg/mL in data set [3] (buffer) and 960 µg/mL (≈ 926 µM) in data set [4] (buffer). Further, the peak level in data set [5] (Sprague-Dawley, 3 ml/kg) (Cmax) was 989 nM. Also, the Tmax in data set [6] (Sprague-Dawley, read-out: Tmax) stood at 3 h. Further, the AUC(0-t) at 24 h in data set [7] was 8.01 µM·h. For the same compound, the Ratio in data set [8] worked out at 1.2; in data set [9], 6.1; in data set [10], 27; in data set [11] it was 36.4; in data set [12], 3.4.
In the case of `CCC(C)C(OC(=O)O[C@@H](CN(Cc1ccc(-c2ccccn2)cc1)NC(=O)[C@@H](NC(=O)OC)C(C)(C)C)[C@H](Cc1ccccc1)NC(=O)[C@@H](NC(=O)OC)C(C)(C)C)OC(=O)[C@@H](N)C(C)C` (stereo in doubt; 4k), the t1/2 in data set [1] turned out to be 334.4 h; in [2], 13.4 h. In data set [4] (buffer), this compound returned a solubility above 2600 µg/mL. The same compound yielded a Cmax in data set [5] (24 h) of 1840 nM. Further, the AUClast in data set [7] is 1.658 µM·h. Moreover, the Ratio is recorded as 3.7 in data set [8]; 3.2 in data set [9]; 7.5 in data set [10]; 1631.7 in [11]; 1.34 in [12].
Turning to `COC(=O)N[C@H](C(=O)N[C@@H](Cc1ccccc1)[C@H](CN(Cc1ccc(-c2ccccn2)cc1)NC(=O)[C@@H](NC(=O)OC)C(C)(C)C)OC(=O)OC(OC(=O)[C@@H](NC(=O)[C@H](N)C(C)C)C(C)C)C(C)C)C(C)(C)C` (stereo in doubt; 6g), the figures for the half-life in data set [13], in data set [1] and in [2] were above 500 h, 232 h and 6.1 h, respectively. The solubility in [3] (setting [14]) was above 2200 µg/mL; in [4] (setting [14]), above 1200 µg/mL.
As for `CN[C@H](C(=O)OC(OC(=O)O[C@@H](CN(Cc1ccc(-c2ccccn2)cc1)NC(=O)[C@@H](NC(=O)OC)C(C)(C)C)[C@H](Cc1ccccc1)NC(=O)[C@@H](NC(=O)OC)C(C)(C)C)C(C)C)C(C)C` (stereo in doubt; 5f), the t1/2 in data set [1] is above 500 h; in [2], 2.87 h. Also, the values for the solubility in data set [3] (buffer) and in [4] (buffer) were above 2000 µg/mL and above 1900 µg/mL, respectively. In [5] (24 h), the Cmax stood at 382 nM. For the same compound, in [6] (po, 24 h), the time of peak concentration (Tmax) worked out at 0.7 h. In data set [7], this compound returned an AUClast of 0.996 µM·h. For the same compound, the Ratio worked out at 2.1 in [8]; 4.4 in data set [9]; 7 in [10]; 194.1 in data set [11]; 0.59 in data set [12].
As to `COC(=O)N[C@H](C(=O)N[C@@H](Cc1ccccc1)[C@H](CN(Cc1ccc(-c2ccccn2)cc1)NC(=O)[C@@H](NC(=O)OC)C(C)(C)C)OC(=O)OC(OC(=O)[C@@H](N)CC(C)C)C(C)C)C(C)(C)C` (stereo in doubt; 3u), the t1/2 was found to be 136.8 h in [13], 59 h in [1] and 5.9 h in [2]. The solubility in [3] (buffer) was above 1480 µg/mL; in data set [4] (buffer) it was above 1600 µg/mL. The Cmax in data set [5] (Sprague-Dawley, 3 ml/kg) was 182 nM. Besides, the Tmax in data set [6] (Sprague-Dawley, read-out: Tmax) came out at 0.3 h. This compound showed an AUC(0-t) at 24 h in [7] of 0.105 µM·h. For the same compound, the Ratio in [8] is reported as 2.9; in data set [9], 2.1; in [10], 2.4; in data set [12], 0.13.
As for `COC(=O)N[C@H](C(=O)N[C@@H](Cc1ccccc1)[C@H](CN(Cc1ccc(-c2ccccn2)cc1)NC(=O)[C@@H](NC(=O)OC)C(C)(C)C)OC(=O)OC(OC(=O)[C@H](C)N)C(C)C)C(C)(C)C` (stereo in doubt; 3p), the half-life in [13] was 158 h; in data set [1], 41.8 h; in data set [2], 3.6 h. The figures for the solubility in data set [3] (setting [14]) and in [4] (setting [14]) were above 1600 µg/mL and above 2400 µg/mL, respectively. The compound further gave a Cmax in data set [5] (24 h) of 34 nM. Also, the time of peak concentration (Tmax) in data set [6] (Sprague-Dawley, read-out: Tmax) was determined as 0.4 h. Also, the AUClast in [7] worked out at 0.019 µM·h. Besides, the Ratio came to 0.9 in data set [8], 0.8 in data set [9], 0.9 in data set [10] and 0.06 in data set [12].
In the case of `COC(=O)N[C@H](C(=O)N[C@@H](Cc1ccccc1)[C@H](CN(Cc1ccc(-c2ccccn2)cc1)NC(=O)[C@@H](NC(=O)OC)C(C)(C)C)OC(=O)OC(OC(=O)[C@@H](N)C(C)C)C1CCCCC1)C(C)(C)C` (stereo in doubt; 4o), the t1/2 in data set [1] was above 500 h; in data set [2] it was 12.7 h. Besides, the solubility is above 2000 µg/mL in [3] (buffer) and above 1100 µg/mL in [4] (buffer). In [5] (24 h), this compound returned a Cmax of 395 nM. Moreover, the Tmax in data set [6] (po, 24 h) was 0.3 h. This compound also registered an AUClast in [7] of 0.406 µM·h. Further, the Ratio is given as 1.4 in data set [8], 1.1 in [9], 2.1 in data set [10] and 0.98 in [12].
Turning to `COC(=O)N[C@H](C(=O)N[C@@H](Cc1ccccc1)[C@H](CN(Cc1ccc(-c2ccccn2)cc1)NC(=O)[C@@H](NC(=O)OC)C(C)(C)C)OC(=O)OC(OC(=O)CCN)C(C)C)C(C)(C)C` (stereo in doubt; 3aa), the results for the t1/2 in [13], in data set [1] and in data set [2] were 376.3 h, 376.3 h and 11.4 h, respectively. The solubility in [3] (buffer) is above 3000 µg/mL; in data set [4] (buffer), above 2200 µg/mL.
Regarding `COC(=O)N[C@H](C(=O)N[C@@H](Cc1ccccc1)[C@H](CN(Cc1ccc(-c2ccccn2)cc1)NC(=O)[C@@H](NC(=O)OC)C(C)(C)C)OC(=O)OC(OC(=O)C[C@H](N)Cc1cc(F)c(F)cc1F)C(C)C)C(C)(C)C` (stereo in doubt; 3ab), the values for the half-life in data set [13], in data set [1] and in [2] were above 500 h, 376 h and 8.9 h, respectively. The values for the solubility in data set [3] (buffer) and in data set [4] (setting [14]) were above 960 µg/mL and above 910 µg/mL, respectively.
For `CCC(C)C(OC(=O)O[C@@H](CN(Cc1ccc(-c2ccccn2)cc1)NC(=O)[C@@H](NC(=O)OC)C(C)(C)C)[C@H](Cc1ccccc1)NC(=O)[C@@H](NC(=O)OC)C(C)(C)C)OC(=O)[C@@H](N)C(C)C` (mixture of isomers), the half-life in [13] and in data set [1] was above 500 h throughout. Besides, in data set [2], the t1/2 stood at 27.3 h. Further, the solubility is above 2100 µg/mL in data set [3] (setting [14]) and above 1500 µg/mL in data set [4] (setting [14]). This compound also gave a peak concentration (Cmax) in [5] (24 h) of 805 nM. In data set [6] (Sprague-Dawley, read-out: Tmax), the time of peak concentration (Tmax) amounted to 0.3 h. Also, the AUClast in [7] was 0.724 µM·h. Besides, the Ratio is listed as 3.8 in data set [8], 2.8 in data set [9], 4.6 in data set [10] and 0.68 in data set [12].
Consider `COC(=O)N[C@H](C(=O)N[C@@H](Cc1ccccc1)[C@H](CN(Cc1ccc(-c2ccccn2)cc1)NC(=O)[C@@H](NC(=O)OC)C(C)(C)C)OC(=O)OC(OC(=O)[C@@H](N)C(C)C)C(C)(C)C)C(C)(C)C` (stereo in doubt; 4m), for which the t1/2 in [2] was 23.7 h. The solubility is above 1200 µg/mL in data set [3] (buffer) and above 1000 µg/mL in data set [4] (buffer). This compound registered a Cmax in data set [5] (24 h) of 27 nM. In data set [6] (po, 24 h), the Tmax is 0.3 h. Also, the AUClast in data set [7] was 0.006 µM·h. Further, the Ratio is reported as 1.9 in [8]; 2 in data set [9]; 2 in data set [10]; 721.4 in data set [11]; 0.01 in [12].
